Experimental data from patent US8188102B2, “Amide derivative for inhibiting the growth of cancer cells” (Hanmi Holdings Co., Ltd., priority 2007, dated 2012).
Where two headings read alike, the source gives them in different places.

Columns and labels:
[1] = test system: A431 skin cancer cell line; test: Cancer cell growth inhibition, A431 (SRB); conditions: Homo sapiens, A-431, 72 h, read-out: ID50 (nM) A431
[2] = test system: H1975 lung cancer cell line; test: Cancer cell growth inhibition, H1975 (celltiter); conditions: Homo sapiens, NCI-H1975, 48 h, read-out: IC50 (nM) H1975
Description: The medium was removed from each well of the 96-well plate.
In case of H1975, the cells were diluted with a culture medium to a concentration of 50,000 cells/ml. 100 μl of the diluted cell solution was added to each well of a 96-well plate, and, after 1 day, was washed with a mixture of RPMI, 0.1% FBS and 1% penicillin-streptomycin (PS), followed by replacement of the medium. The plate was allowed to be kept overnight and be treated to various concentrations under the same medium condition for 48 hrs. Similarly to an MTT assay, 15 μl of a celltiter one shot solution (Promega) was added to each well, which was incubated for 2 to 3 hrs, and, then, the absorbance at 490 nm was determined.

[3] = test system: SK-Br3 breast cancer cell line; test: Cancer cell growth inhibition, SK-Br3 (SRB); conditions: Homo sapiens, SK-BR-3, 72 h, read-out: ID50 (nM) SK-Br3
[4] = test system: SW-620 colon/rectal cancer cell line; test: Cancer cell growth inhibition, SW-620 (SRB); conditions: Homo sapiens, SW-620, 72 h, read-out: IC50 (nM) SW-620
[5] = target: EGFR (EGFR type 1 kinase, Upstate) (Homo sapiens, UniProt P00533); test: Inhibition of EGFR enzyme (fluorescence polarization kinase assay); conditions: read-out: IC50 (nM) EGFR; EGFR type 1 kinase, ATP 50 μM
Description: 10 μl of an EGFR (EGFR type 1 kinase, Upstate, 10 ng/μl) was added to each well of a 96-well plate. […] The calculation and analysis of IC50 were carried out by using Microsoft Excel.

[6] = target: EGFR T790M kinase (Homo sapiens, UniProt P00533, T790M); test: Inhibition of EGFR mutant enzyme (T790M)
[7] = target: T1, EGFR (Homo sapiens, UniProt P00533); test: Prolongation study in A431 cells (EGFR phosphorylation inhibition); assay type: cell-based; conditions: A-431, 1 μM for 4 hrs, then washed, EGF 100 ng/ml
T1 construct: A skin cancer cell line, A431 (ATCC: CRL-1555), was used; endogenous in cells; host or cells: A431 (ATCC: CRL-1555)
Description: A skin cancer cell line, A431 (ATCC: CRL-1555), was used to test the degrees of the inventive compounds in inhibiting EGFR's phosphorylation and the prolongation of ability to inhibit it thereof.
The cell line was incubated in a culture flask at 37° C. under 95% air and 5% CO2 using a culture medium containing DMEM, 10% FBS and 1% PS. When more than 90% of the total volume of the culture flask became filled with cells, the cultured cell solution was subject to secondary incubation and was poured to each well of a 6-well plate to the extent of 500,000 cells/well. After 24 hrs, the cells were separated from the solution, washed with PBS, and incubated in a culture medium containing DMEM, 0.1% FBS and 1% PS for 16 hrs. The compounds obtained in Examples 1, 17, 19 and 36, and Tarceva as EGFR phosphorylation inhibitors were each added to the cell-containing well to a concentration of 1 μM. After 4 hrs, the cells were separated from the solution, washed 4 times with PBS after every 0, 2, 4 and 8 hrs, and incubated in a culture medium containing DMEM, 0.1% FBS and 1% PS. […] Just before the completion of the reaction, the cultured cell solution was treated with a 100 ng/ml concentration of EGF (Sigma, Cat No. E9644) for 5 mins to induce the activation of EGFR. After the completion of the reaction, the well plate holding the cultured cells was stored at −70° C. In control groups, the replacement of the medium was performed instead of the addition of the EGFR phosphorylation inhibitor, wherein the induction of EGFR activation using EGF was made only in a positive control group and not made in a negative control group.
For Western blot and enzyme immune measuring (ELISA) methods, the well plate stored at −70° C. was allowed to melt to room temperature, and then protein was extracted from the cells in the well plate using a protein extract buffer. The extraction of the protein was performed as follows: 250 μl of the protein extract buffer (Phosphosafe extraction reagent, Calbiochem, Cat No. 71296-3) comprising protease inhibitor cocktail was added to each cell-containing well, which was stirred at room temperature for 5 mins. The cells were collected using a cell scraper and put in an 1.5 ml tube, which was centrifuged at a speed of 16,000×g for 5 mins. The upper layer thus obtained was separated, of which the protein content was determined by a protein assay kit (Bio-rad, Cat No. 500-0116). The protein extracted was diluted with PBS to a concentration of 0.8 mg/ml.
A human EGFR (py1173) immunoassay kit (Biosource, Cat No. KHR9071) was used in the enzyme immune measuring method. 100 μl of the sample which was diluted by 4 folds with a standard dilution buffer in a kit was added to a strip well, which was incubated at a 4° C. refrigerator overnight. The cultured cells was separated therefrom and washed 4 times with 200 μl of a washing buffer. 100 μl of the resulting primary antibody (anti-human EGFR [pY1173]) was put to each strip well, incubated at 37° C. for 1 hr, and washed 4 times with 200 μl of a washing buffer. The resulting secondary antibody (anti-rabbit IgG-HRP) was diluted by 100 folds with an HRP dilution buffer in a kit. 100 μl of the dilute was put to each strip well, incubated at 37° C. for 30 mins, and washed 4 times with 200 μl of the washing buffer. 100 μl of an HRP substrate in a kit was put to each strip well and incubated in a darkroom for 10 to 30 mins. 100 μl of a reaction stop solution was added thereto to terminate the reaction, and then, the absorbance at 450 nm was observed.
Electrophoresis and Western blot methods were conducted based on the conventional methods in the following: An LDS buffer was added to each sample, which was allowed to boil at 70° C. for 10 mins. 10 μl of the resulting solution was loaded to a 12-well gel (Nupage 4˜12% Bis-tris gel, Invitrogen), followed by 120 volt-electrophoresis in a buffer (MOPS electrophoresis buffer, Invitrogen, Cat No. NP0006-1) for 2 hrs. […]

[8] = read-out: IC50 (nM) T790M, EGFR T790M kinase
[9] = 0 hr after washing, read-out: EGFR phosphorylation inhibition in A431 cell line (%) 0 hr Avg.
[10] = 8 hrs after washing, read-out: EGFR phosphorylation inhibition in A431 cell line (%) 8 hrs Avg.
[11] = 24 hrs after washing, read-out: EGFR phosphorylation inhibition in A431 cell line (%) 24 hrs Avg.
[12] = 48 hrs after washing, read-out: EGFR phosphorylation inhibition in A431 cell line (%) 48 hrs Avg.
[13] = 72 hrs after washing, read-out: EGFR phosphorylation inhibition in A431 cell line (%) 72 hrs Avg.

EGFR T790M kinase, sequence (P00533 25-1210 T790M): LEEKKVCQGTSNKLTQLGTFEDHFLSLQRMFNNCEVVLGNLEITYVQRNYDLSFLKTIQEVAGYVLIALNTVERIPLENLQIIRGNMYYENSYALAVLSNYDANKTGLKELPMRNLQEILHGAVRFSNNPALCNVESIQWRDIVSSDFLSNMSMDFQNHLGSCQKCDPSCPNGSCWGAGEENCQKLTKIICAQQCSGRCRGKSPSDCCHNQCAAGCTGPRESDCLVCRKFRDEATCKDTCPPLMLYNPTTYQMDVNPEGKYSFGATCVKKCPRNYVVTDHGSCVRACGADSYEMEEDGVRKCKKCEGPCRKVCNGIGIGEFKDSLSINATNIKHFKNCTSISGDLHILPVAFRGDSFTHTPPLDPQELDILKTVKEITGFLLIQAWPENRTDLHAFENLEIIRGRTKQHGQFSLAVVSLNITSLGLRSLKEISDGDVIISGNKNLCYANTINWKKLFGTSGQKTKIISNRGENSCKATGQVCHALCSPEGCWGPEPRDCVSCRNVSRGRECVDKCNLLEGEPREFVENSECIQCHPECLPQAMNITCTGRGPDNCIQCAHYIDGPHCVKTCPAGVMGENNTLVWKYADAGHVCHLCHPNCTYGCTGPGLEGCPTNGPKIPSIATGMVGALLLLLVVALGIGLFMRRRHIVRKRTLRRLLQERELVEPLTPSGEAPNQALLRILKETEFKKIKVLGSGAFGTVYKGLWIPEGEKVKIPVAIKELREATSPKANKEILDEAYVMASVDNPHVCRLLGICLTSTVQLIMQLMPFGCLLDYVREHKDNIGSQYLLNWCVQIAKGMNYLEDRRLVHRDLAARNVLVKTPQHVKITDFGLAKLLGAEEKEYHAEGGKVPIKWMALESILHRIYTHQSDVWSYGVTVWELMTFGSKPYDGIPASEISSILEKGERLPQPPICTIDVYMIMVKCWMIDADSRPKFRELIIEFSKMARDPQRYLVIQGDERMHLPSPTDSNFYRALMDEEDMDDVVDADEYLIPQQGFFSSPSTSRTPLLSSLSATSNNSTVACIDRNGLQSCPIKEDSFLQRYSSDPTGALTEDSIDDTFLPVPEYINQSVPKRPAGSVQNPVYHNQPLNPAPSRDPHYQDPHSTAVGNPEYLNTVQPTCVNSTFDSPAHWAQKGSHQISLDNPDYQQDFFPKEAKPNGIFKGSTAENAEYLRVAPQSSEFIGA
T1 sequence (P00533 25-1210): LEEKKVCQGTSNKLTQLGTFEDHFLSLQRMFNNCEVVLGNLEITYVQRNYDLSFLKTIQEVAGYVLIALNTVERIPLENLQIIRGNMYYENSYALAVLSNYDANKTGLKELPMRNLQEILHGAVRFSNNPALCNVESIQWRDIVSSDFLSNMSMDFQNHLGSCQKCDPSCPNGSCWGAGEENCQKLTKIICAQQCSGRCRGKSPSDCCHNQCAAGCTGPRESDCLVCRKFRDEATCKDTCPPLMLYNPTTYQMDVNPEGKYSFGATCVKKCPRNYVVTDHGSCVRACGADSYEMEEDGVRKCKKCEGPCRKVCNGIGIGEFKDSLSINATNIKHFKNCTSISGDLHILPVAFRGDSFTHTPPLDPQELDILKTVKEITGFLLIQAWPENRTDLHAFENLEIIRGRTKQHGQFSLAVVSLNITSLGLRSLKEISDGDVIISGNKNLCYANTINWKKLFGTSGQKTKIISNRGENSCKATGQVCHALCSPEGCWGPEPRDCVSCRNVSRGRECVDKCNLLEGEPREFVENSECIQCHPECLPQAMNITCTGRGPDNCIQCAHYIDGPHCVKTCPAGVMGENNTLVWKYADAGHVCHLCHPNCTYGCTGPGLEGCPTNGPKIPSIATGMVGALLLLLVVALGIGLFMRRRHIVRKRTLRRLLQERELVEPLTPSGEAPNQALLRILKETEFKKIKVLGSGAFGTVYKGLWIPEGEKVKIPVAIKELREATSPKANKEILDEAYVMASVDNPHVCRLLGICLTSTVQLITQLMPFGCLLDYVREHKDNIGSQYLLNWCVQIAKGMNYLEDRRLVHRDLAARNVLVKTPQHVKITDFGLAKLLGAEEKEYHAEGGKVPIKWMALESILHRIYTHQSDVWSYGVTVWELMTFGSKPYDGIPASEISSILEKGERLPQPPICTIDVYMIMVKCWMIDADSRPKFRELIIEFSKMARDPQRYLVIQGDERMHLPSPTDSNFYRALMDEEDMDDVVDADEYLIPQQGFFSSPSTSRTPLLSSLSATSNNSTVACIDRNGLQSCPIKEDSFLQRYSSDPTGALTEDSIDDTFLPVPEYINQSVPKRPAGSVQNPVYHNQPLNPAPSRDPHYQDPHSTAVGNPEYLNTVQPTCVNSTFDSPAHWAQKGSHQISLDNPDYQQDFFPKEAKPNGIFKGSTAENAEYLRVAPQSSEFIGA
EGFR (EGFR type 1 kinase, Upstate), sequence (P00533 25-1210): as above

| IC50 [6] [nM] | Structure (SMILES) | IC50 [1] [nM] | IC50 [2] [nM] | IC50 [3] [nM] | IC50 [4] [nM] | IC50 [5] [nM] | IC50 [6, 8] [nM] | inhibition at 1 µM [7, 9] [%] | inhibition at 1 µM [7, 10] [%] | inhibition at 1 µM [7, 11] [%] | inhibition at 1 µM [7, 12] [%] | inhibition at 1 µM [7, 13] [%] |
| --- | --- | --- | --- | --- | --- | --- | --- | --- | --- | --- | --- | --- |
|  | C=CC(=O)N1CC[C@H](Oc2cc3c(Nc4ccc(Br)c(Cl)c4F)ncnc3cc2OC)C1 [Example 7, 1-((3S)-3-(4-(4-bromo-3-chloro-2-fluorophenylamino)-7-methoxyquinazolin-6-yloxy)pyrrolidin-1-yl)pro-2-pen-1-one] | 5 | 55 | 8 | > 5000 | 10 | 8 |  |  |  |  |  |
|  | C=CC(=O)N1CC[C@H](Oc2cc3c(Nc4ccc(F)c(Cl)c4F)ncnc3cc2OC)C[C@H]1C(N)=O [Example 120, (2S,4S)-1-acryloyl-4-(4-(3-chloro-2,4-difluorophenylamino)-7-methoxyquinazolin-6-yloxy)piperidin-2-carboxamide] | 3 | 5.2 | 1.3 | > 5000 | 1.4 | 0.7 |  |  |  |  |  |
|  | C=CC(=O)N1CC(Oc2cc3c(Nc4ccc(F)c(Cl)c4F)ncnc3cc2OC)C1 [Example 17, 1-(3-(4-(3-chloro-2,4-difluorophenylamino)-7-methoxyquinazolin-6-yloxy)azetidin-1-yl)pro-2-pen-1-one] | 0.3 | 1.5 | 0.3 | > 5000 | 0.7 | 0.8 | 87 | 88 | 62 | 31 | 0 |
|  | C=CC(=O)N1CC[C@@H](Oc2cc3c(Nc4ccc(F)c(Cl)c4F)ncnc3cc2OC)C[C@@H]1C(=O)OC [Example 133, (2R,4R)-methyl 1-acryloyl-4-(4-(3-chloro-2,4-difluorophenylamino)-7-methoxyquinazolin-6-yloxy)piperidin-2-carboxylate] | 0.7 | 5.4 | 0.2 | > 5000 | 4.4 | 1.7 |  |  |  |  |  |
|  | C=CC(=O)N1CC[C@@H](Oc2cc3c(Nc4ccc(F)c(Cl)c4F)ncnc3cc2OC)C[C@@H]1C(N)=O [Example 135, (2R,4R)-1-acryloyl-4-(4-(3-chloro-2,4-difluorophenylamino)-7-methoxyquinazolin-6-yloxy)piperidin-2-carboxamide] | 0.8 | 5.2 | 0.2 | > 5000 | 4.1 | 0.7 |  |  |  |  |  |
| 3 | C=CC(=O)N1CCC(Oc2cc3c(Nc4ccc(F)c(Cl)c4F)ncnc3cc2OCCOC)CC1 [Example 117, 1-(4-(4-(3-Chloro-2,4-difluorophenylamino)-7-(2-methoxyethoxy)quinazolin-6-yloxy)piperidin-1-yl)prop-2-en-1-one] | 4 | 47 | 1.4 | > 5000 | 0.7 |  |  |  |  |  |  |
|  | C=CC(=O)N1CCC(Oc2cc3c(Nc4ccc(F)c(Cl)c4F)ncnc3cc2OC)CC1 [Example 19, 1-(4-(4-(3-chloro-2,4-difluorophenylamino)-7-methoxyquinazolin-6-yloxy)piperidin-1-yl)pro-2-pen-1-one] | 0.3 | 1.3 | 0.3 | > 5000 | 1.1 | 1.9 | 81 | 86 | 80 | 34 | 0 |
